Data on two compounds can be found in US4749710A, “Immunosuppressive agents” (priority 1985, dated 1988).

Data set [1] concerns murine cytotoxic T-lymphocyte responses. The experiment in a line: cells. In kind it is cell-based. Particulars: for CTL activity (% specific ^51 Cr release): 90:1 effector to target. The source says:
Immunosuppressive Activity of Vitamin D compounds on cytotoxic T lymphocyte Responses-General Test Description
Cytotoxic thymus-derived lymphocytes (CTL) constitute an important aspect of immune function and, as a result, play a key role in the rejection of grafted cells, tissues and organs. It is, therefore, essential to suppress CTL generation in a clinical situation in which CTL function is antithetical to the desired outcome as, for example, in transplantation. Cytotoxic T-lymphocytes have been studied for several years by many investigators and methods to evaluate CTL responses in vitro are well established.
As described below, CTL responses as affected by Vitamin D derivatives, were studied in vitro using cells from lab animals and human volunteers. Cytotoxic T-lymphocytes were generated from responder lymphoid cells in tissue culture medium during an incubation period of 6 days by exposure to foreign stimulator cells, i.e. from a genetically disparate source. A portion of the resultant effector cells were CTL capable of killing fresh cells related to the stimulator cells employed in the 6 day culture. To detect killing of cells by CTL, fresh target cells were incubated in excess ^51 chromium (as sodium chromate) until they were extensively labelled. Since target cells will retain the internalized radioisotope as long as they are viable but release the label when they are killed, CTL activity was assessed by quantitating the chromium released from target cells after a 4 or 18 hour incubation with CTL. Immunosuppression produced by Vitamin D derivatives was gauged as the ability to inhibit CTL responses during the initial incubation period relative to control cultures to which no Vitamin D derivative was added.
Female BALB/c By and C57BL/6 mice were obtained from Jackson Laboratories and were used between 8 and 10 weeks of age. Mice were given food and water ad libitum and were kept in a 12 hour light and 12 hour dark cycle.
For murine cultures, minimal essential medium with Hank's salts was supplemented to 1 millimolar with sodium pyruvate, to 0.1 millimolar with nonessential amino acids, to 2 millimolar with 1-glutamine, to 10% (v/v) with heat-inactivated fetal bovine serum, to 50 micrograms per ml with gentamicin, and to 1000 milligrams per liter with sodium bicarbonate and was used as tissue culture medium.
Stock solutions of Vitamin D derivatives were made in argon-saturated ethanol at a final concentration of 1×10^-2 molar, were covered with argon before sealing and were stored at -20° C. in the dark. Reduced lighting conditions were always employed when working with compounds. Compounds were diluted in tissue culture medium to 1×10^-4 molar and all subsequent dilutions were done in tissue culture medium containing 1% v/v ethanol. The final dilution into culture vessels was 1:10 thus keeping the vehicle concentration constant at 0.1% while varying the concentration of compound as tabulated in the results. For purposes of control, mixed leukocyte cultures were incubated in medium only (medium control) or in medium containing a final concentration of 0.1% ethanol (vehicle control).
Murine cytotoxic T-lymphocytes were generated in mixed leukocyte cultures by known methods. Specifically, single cell suspensions were prepared from spleens by gentle disruption in balanced salt solution (Hanks' balanced salt solution supplemented to 10%, v/v, with fetal bovine serum). After sedimentation on ice to remove particulate debris, cell suspensions were centrifuged at 400xg and were resuspended in fresh balanced salt solution. Cells to be used as stimulator cells were precluded from proliferating or generating cytotoxic T-lymphocytes by exposure to 1000 rads of gamma irradiation using a ^137 cesium source. […]

For data set [2], the system named is cytotoxic T-lymphocyte responses (P815 tumor cells). As to the kind of experiment: Suppression of murine CTL responses in vivo (mice immunized with P815 cells). On the set-up: species or system C57BL/6 mice. Particulars: for CTL activity (% specific ^51 Cr release): day 10; for CTL activity (% specific ^51 Cr release) / Inhibition of CTL activity (%): effector to target 10:1. The protocol: General description. The general test considerations are similar to those previously described for the in vitro murine experiments except that stimulator cells and experimental compound were administered to intact laboratory mice. The impact of compound on CTL responses generated in vivo was determined by comparing the resultant CTL activity from test mice to the CTL activity generated in mice which received vehicle only.
Female C57BL/6 mice were used between the ages of 9-12 weeks. Mice were given food and water ad libitum and were kept in a 12-hour light and 12-hour dark cycle.
A balanced salt solution (BSS) was prepared as described for tissue culture medium in the in vitro murine experiments but was additionally supplemented to 0.01 molar with HEPES buffer.
The compound, 22,23-dehydro-1α,25S,26-trihydroxycholecalciferol was dissolved in dimethylsulfoxide at final concentrations of 2 or 4 mg per ml. When working with vitamin D compounds, conditions of reduced lighting were employed.
In vivo regimens. Mice were apportioned at 4 per group and were inoculated intraperitoneally with 3×10^6 allogeneic P815 tumor cells and the resulting CTL activity was assessed 10 days later. Mice were treated by the intraperitoneal route with 25 microliters of test compound dissolved in dimethylsulfoxide or with dimethylsulfoxide only (vehicle control). In test 1, mice were given daily treatments of 50 micrograms of 22,23-dehydro-1α,25S,26-trihydroxycholecalciferol per day starting one day before immunization and continuing until the day before assay. In test 2, mice were treated with 100 micrograms of 22,23-dehydro-1α,25S,26-trihydroxycholecalciferol only twice: on the day before immunization and on the day of immunization.
Assay for CTL activity. Ten days after immunization of mice with P815 cells, single spleen cell suspensions were prepared by passage of spleens through a steel mesh into BSS and were subsequently washed twice with BSS. Further manipulations of spleen cells, labeling of P815 target cells with ^51 Cr, mechanics of the assay, and the calculation of results from the CTL assay are the same as described earlier for the in vitro murine CTL tests. Cytotoxic T lymphocyte activity was determined individually on spleen cells from each animal in each group and the results are expressed as the mean CTL activity (as percent specific ^51 Cr release) of each group±the standard deviation.
Statistical analysis. A student's t-test was to compare the vehicle-treatedgroup to the test group in each test and the resultant p values are shown.

The structures appear in SMILES notation.

One may read the inhibition as the drop in the measured response relative to a control, in per cent.

On to `C=C1/C(=C\C=C2/CCC[C@]3(C)[C@@H]([C@H](C)C[C@H](O)CC(C)(C)O)CC[C@@H]23)C[C@@H](O)C[C@@H]1O` [1α,23S,25-(OH)3 --D3, 1α,23S,25-Trihydroxycholecalciferol], for which the inhibition at 10 µM in data set [1] (Mus musculus, T-lymphocyte, Table I, 1 × 10^-5 molar, vs vehicle control, read-out: Inhibition of CTL activity (%)) was found to be 77%. Moreover, the inhibition at 1 µM in data set [1] (Mus musculus, T-lymphocyte, Table I, 1 × 10^-6 molar, vs vehicle control, read-out: Inhibition of CTL activity (%)) is 59%. Also, the inhibition at 0.1 µM in data set [1] (Mus musculus, T-lymphocyte, Table I, 1 × 10^-7 molar, vs vehicle control, read-out: Inhibition of CTL activity (%)) is 43%. The inhibition at 0.01 µM in data set [1] (Mus musculus, T-lymphocyte, Table I, 1 × 10^-8 molar, vs vehicle control, read-out: Inhibition of CTL activity (%)) came out at 18%. For the same compound, in data set [1] (Mus musculus, T-lymphocyte, Table I, 1 × 10^-9 molar, vs vehicle control, read-out: Inhibition of CTL activity (%)), the inhibition at 0.001 µM was 0%. In addition, the “CTL activity (% specific ^51 Cr release)” value in data set [1] (Table I, 1 × 10^-5 molar) is reported as 10 % specific ^51 Cr release; in data set [1] (Table I, 1 × 10^-6 molar), 18 % specific ^51 Cr release; in data set [1] (Table I, 1 × 10^-7 molar) it was 25 % specific ^51 Cr release; in data set [1] (Table I, 1 × 10^-8 molar), 36 % specific ^51 Cr release; in data set [1] (Table I, 1 × 10^-9 molar), 45 % specific ^51 Cr release. Further, in data set [1] (in vitro), the “suppression of murine cytotoxic T-lymphocyte responses (in words)” value was “suppress murine cytotoxic T-lymphocyte responses”.

For `C=C1/C(=C\C=C2/CCC[C@]3(C)[C@@H]([C@H](C)C=CC[C@](C)(O)CO)CC[C@@H]23)C[C@@H](O)C[C@@H]1O` [1α,25S,26-(OH)3 --Δ^22 -D3, 1α,25S,26-Trihydroxy-Δ^22-cholecalciferol], the “reduction in CTL activity in mice (in words)” value in data set [2] (both tests) is given as “statistically significant reduction in CTL activity”. Further, the “CTL activity (% specific ^51 Cr release)” value worked out at 13 ± 4 % specific ^51 Cr release in data set [2] (test 1, 50 ug/dose intraperitoneal daily) and 14 ± 2 % specific ^51 Cr release in data set [2] (test 2, 100 ug/dose intraperitoneal, twice). In addition, the “Inhibition of CTL activity (%)” value in data set [2] (test 1, 50 ug/dose intraperitoneal daily, p < 0.05) stood at 58%; in data set [2] (test 2, 100 ug/dose intraperitoneal, twice, p < 0.01) it was 53%.
